Results as given in patent US20070049564A1 (Wyeth, priority 2005, published 2007).
Values after ≈ are worked out from the molar mass of the structure shown. Like-named read-outs stand apart in the source and are kept apart here.

Tests used:
Test in all cases: MIC, broth microdilution
E. faecium GC 4556 = settings: Enterococcus faecium
S. pneumoniae+ GC 4465 = settings: Streptococcus pneumoniae
E. coli GC 2231 = settings: Escherichia coli
c. albicans GC 3066 = tested on: c. albicans GC 3066
E. faecium GC 2243 = settings: Enterococcus faecium
S. aureus GC 1131 = settings: Staphylococcus aureus
S. epidermidis GC 4935 = settings: Staphylococcus epidermidis
S. aureus GC 1079 = settings: Staphylococcus aureus
S. pneumoniae* GC 4465 = settings: Streptococcus pneumoniae
S. aureus GC 6335 = settings: Staphylococcus aureus
Description: (§1) Antimicrobial susceptibility testing. The in vitro activities of the antibiotics are determined by the broth microdilution method as recommended by the National Committee for Clinical Laboratory Standards (NCCLS) (1). Mueller-Hinton II broth (MHBII)(BBL Cockeysville, Md.) is the medium employed in the testing procedures. Microtiter plates containing serial dilutions of each antimicrobial agent are inoculated with each organism to yield the appropriate density (10^5 CFU/ml) in a 100 μl final volume. The plates are incubated for 18-22 hours at 35° C. in ambient air.
(§2) Representative compounds were first incubated in mouse serum for an hour prior to the in vitro testing against a panel of selected gram-positive and gram-negative bacteria strains. All compounds were also pre-incubated in water for an hour prior to testing as control. Representative compounds of Formula I were incubated in human serum prior to MIC determination.

S. pyogenes GC 4563 = settings: Streptococcus pyogenes
Description: Antimicrobial susceptibility testing. The in vitro activities of the antibiotics are determined by the broth microdilution method as recommended by the National Committee for Clinical Laboratory Standards (NCCLS) (1). Mueller-Hinton II broth (MHBII)(BBL Cockeysville, Md.) is the medium employed in the testing procedures. Microtiter plates containing serial dilutions of each antimicrobial agent are inoculated with each organism to yield the appropriate density (10^5 CFU/ml) in a 100 μl final volume. The plates are incubated for 18-22 hours at 35° C. in ambient air. […] Standard Pharmacological Test Procedures
Presented in Tables I-XIII are representative compounds of Formula I which were evaluated against a panel of 40 selected gram-positive and gram-negative bacteria strains by pre-incubation in water, mouse serum or human serum. Representative compounds were first incubated in mouse serum for an hour prior to the in vitro testing against a panel of selected gram-positive and gram-negative bacteria strains. All compounds were also pre-incubated in water for an hour prior to testing as control. Representative compounds of Formula I were incubated in human serum prior to MIC determination.

E. coli GC 2272 = settings: Escherichia coli
Description: as §1, §2

E. coli GC 2234 = settings: Escherichia coli
E. coli GC 3226 = settings: Escherichia coli
S. aureus GC 6466 = settings: Staphylococcus aureus
S. typhimurium GC 2172 = settings: Salmonella enterica, TYPHIMURIUM
E. coli GC 2232 = settings: Escherichia coli
S. aureus GC 2216 = settings: Staphylococcus aureus
E. faecalis GC 2267 = settings: Enterococcus faecalis
[1] = read-out: MINIMAL INHIBITORY CONCENTRATION MIC, Human Serum
[2] = read-out: MINIMAL INHIBITORY CONCENTRATION MIC, Mouse Serum
[3] = read-out: MINIMAL INHIBITORY CONCENTRATION MIC, Water

Cc1cc(C)cc(C(=O)OCOC(=O)N(CC(=O)Nc2cc(N(C)C)c3c(c2O)C(=O)C2=C(O)[C@]4(O)C(=O)C(C(N)=O)=C(O)[C@@H](N(C)C)[C@@H]4C[C@@H]2C3)C(C)(C)C)c1 [Example 51]
MIC (E. faecium GC 4556; GC4556, read-out: MINIMAL INHIBITORY CONCENTRATION MIC, Human Serum): 8 µg/mL (≈ 10.1 µM)
MIC (E. faecium GC 4556; GC4556, read-out: MINIMAL INHIBITORY CONCENTRATION MIC, Mouse Serum): 2 µg/mL (≈ 2.53 µM)
MIC (E. faecium GC 4556; GC4556, read-out: MINIMAL INHIBITORY CONCENTRATION MIC, Water): 8 µg/mL (≈ 10.1 µM)
MIC (S. pneumoniae+ GC 4465; [1]): 2 µg/mL (≈ 2.53 µM)
MIC (S. pneumoniae+ GC 4465; [2]): 1 µg/mL (≈ 1.26 µM)
MIC (S. pneumoniae+ GC 4465; [3]): 1 µg/mL (≈ 1.26 µM)
MIC (E. coli GC 2231; GC2231, read-out: MINIMAL INHIBITORY CONCENTRATION MIC, Human Serum): 32 µg/mL (≈ 40.4 µM)
MIC (E. coli GC 2231; GC2231, read-out: MINIMAL INHIBITORY CONCENTRATION MIC, Mouse Serum): 2 µg/mL (≈ 2.53 µM)
MIC (E. coli GC 2231; GC2231, read-out: MINIMAL INHIBITORY CONCENTRATION MIC, Water): > 64 µg/mL
MIC (c. albicans GC 3066; Candida albicans, GC3066, read-out: MINIMAL INHIBITORY CONCENTRATION MIC): > 64 µg/mL
MINIMAL INHIBITORY CONCENTRATION MIC (c. albicans GC 3066; Human Serum): >64 UG/ML
MINIMAL INHIBITORY CONCENTRATION MIC (c. albicans GC 3066; Mouse Serum): >64 UG/ML
MIC (E. faecium GC 2243; GC2243, read-out: MINIMAL INHIBITORY CONCENTRATION MIC, Human Serum): 4 µg/mL (≈ 5.05 µM)
MIC (E. faecium GC 2243; GC2243, read-out: MINIMAL INHIBITORY CONCENTRATION MIC, Mouse Serum): 1 µg/mL (≈ 1.26 µM)
MIC (E. faecium GC 2243; GC2243, read-out: MINIMAL INHIBITORY CONCENTRATION MIC, Water): 4 µg/mL (≈ 5.05 µM)
MIC (S. aureus GC 1131; GC1131, read-out: MINIMAL INHIBITORY CONCENTRATION MIC, Human Serum): 0.5 µg/mL (≈ 0.631 µM)
MIC (S. aureus GC 1131; GC1131, read-out: MINIMAL INHIBITORY CONCENTRATION MIC, Mouse Serum): 0.5 µg/mL (≈ 0.631 µM)
MIC (S. aureus GC 1131; GC1131, read-out: MINIMAL INHIBITORY CONCENTRATION MIC, Water): 1 µg/mL (≈ 1.26 µM)
MIC (S. epidermidis GC 4935; GC4935, read-out: MINIMAL INHIBITORY CONCENTRATION MIC, Human Serum): 2 µg/mL (≈ 2.53 µM)
MIC (S. epidermidis GC 4935; GC4935, read-out: MINIMAL INHIBITORY CONCENTRATION MIC, Mouse Serum): 2 µg/mL (≈ 2.53 µM)
MIC (S. epidermidis GC 4935; GC4935, read-out: MINIMAL INHIBITORY CONCENTRATION MIC, Water): 4 µg/mL (≈ 5.05 µM)
MIC (S. aureus GC 1079; GC1079, read-out: MINIMAL INHIBITORY CONCENTRATION MIC, Human Serum): 1 µg/mL (≈ 1.26 µM)
MIC (S. aureus GC 1079; GC1079, read-out: MINIMAL INHIBITORY CONCENTRATION MIC, Mouse Serum): 0.5 µg/mL (≈ 0.631 µM)
MIC (S. aureus GC 1079; GC1079, read-out: MINIMAL INHIBITORY CONCENTRATION MIC, Water): 2 µg/mL (≈ 2.53 µM)
MIC (S. pneumoniae* GC 4465; [1]): 2 µg/mL (≈ 2.53 µM)
MIC (S. pneumoniae* GC 4465; [2]): 0.5 µg/mL (≈ 0.631 µM)
MIC (S. pneumoniae* GC 4465; [3]): 1 µg/mL (≈ 1.26 µM)
MIC (S. aureus GC 6335; GC6335, read-out: MINIMAL INHIBITORY CONCENTRATION MIC, Human Serum): 0.5 µg/mL (≈ 0.631 µM)
MIC (S. aureus GC 6335; GC6335, read-out: MINIMAL INHIBITORY CONCENTRATION MIC, Mouse Serum): 0.5 µg/mL (≈ 0.631 µM)
MIC (S. aureus GC 6335; GC6335, read-out: MINIMAL INHIBITORY CONCENTRATION MIC, Water): 1 µg/mL (≈ 1.26 µM)
MIC (S. pyogenes GC 4563; GC4563, read-out: MINIMAL INHIBITORY CONCENTRATION MIC, Human Serum): 2 µg/mL (≈ 2.53 µM)
MIC (S. pyogenes GC 4563; GC4563, read-out: MINIMAL INHIBITORY CONCENTRATION MIC, Mouse Serum): 0.5 µg/mL (≈ 0.631 µM)
MIC (S. pyogenes GC 4563; GC4563, read-out: MINIMAL INHIBITORY CONCENTRATION MIC, Water): 2 µg/mL (≈ 2.53 µM)
MIC (E. coli GC 2272; GC2272, read-out: MINIMAL INHIBITORY CONCENTRATION MIC, Human Serum): 32 µg/mL (≈ 40.4 µM)
MIC (E. coli GC 2272; GC2272, read-out: MINIMAL INHIBITORY CONCENTRATION MIC, Mouse Serum): 2 µg/mL (≈ 2.53 µM)
MIC (E. coli GC 2272; GC2272, read-out: MINIMAL INHIBITORY CONCENTRATION MIC, Water): > 64 µg/mL
MIC (E. coli GC 2234; GC2234, read-out: MINIMAL INHIBITORY CONCENTRATION MIC, Human Serum): 32 µg/mL (≈ 40.4 µM)
MIC (E. coli GC 2234; GC2234, read-out: MINIMAL INHIBITORY CONCENTRATION MIC, Mouse Serum): 1 µg/mL (≈ 1.26 µM)
MIC (E. coli GC 2234; GC2234, read-out: MINIMAL INHIBITORY CONCENTRATION MIC, Water): > 64 µg/mL
MIC (E. coli GC 3226; GC3226, read-out: MINIMAL INHIBITORY CONCENTRATION MIC, Human Serum): 64 µg/mL (≈ 80.8 µM)
MIC (E. coli GC 3226; GC3226, read-out: MINIMAL INHIBITORY CONCENTRATION MIC, Mouse Serum): 2 µg/mL (≈ 2.53 µM)
MIC (E. coli GC 3226; GC3226, read-out: MINIMAL INHIBITORY CONCENTRATION MIC, Water): > 64 µg/mL
MIC (S. aureus GC 6466; GC6466, read-out: MINIMAL INHIBITORY CONCENTRATION MIC, Human Serum): 0.25 µg/mL (≈ 0.316 µM)
MIC (S. aureus GC 6466; GC6466, read-out: MINIMAL INHIBITORY CONCENTRATION MIC, Mouse Serum): 0.25 µg/mL (≈ 0.316 µM)
MIC (S. aureus GC 6466; GC6466, read-out: MINIMAL INHIBITORY CONCENTRATION MIC, Water): 1 µg/mL (≈ 1.26 µM)
MIC (S. typhimurium GC 2172; [1]): 64 µg/mL (≈ 80.8 µM)
MIC (S. typhimurium GC 2172; [2]): 8 µg/mL (≈ 10.1 µM)
MIC (S. typhimurium GC 2172; [3]): > 64 µg/mL
MIC (E. coli GC 2232; GC2232, read-out: MINIMAL INHIBITORY CONCENTRATION MIC, Human Serum): 32 µg/mL (≈ 40.4 µM)
MIC (E. coli GC 2232; GC2232, read-out: MINIMAL INHIBITORY CONCENTRATION MIC, Mouse Serum): 2 µg/mL (≈ 2.53 µM)
MIC (E. coli GC 2232; GC2232, read-out: MINIMAL INHIBITORY CONCENTRATION MIC, Water): > 64 µg/mL
MIC (S. aureus GC 2216; GC2216, read-out: MINIMAL INHIBITORY CONCENTRATION MIC, Human Serum): 0.5 µg/mL (≈ 0.631 µM)
MIC (S. aureus GC 2216; GC2216, read-out: MINIMAL INHIBITORY CONCENTRATION MIC, Mouse Serum): 0.5 µg/mL (≈ 0.631 µM)
MIC (S. aureus GC 2216; GC2216, read-out: MINIMAL INHIBITORY CONCENTRATION MIC, Water): 1 µg/mL (≈ 1.26 µM)
MIC (E. faecalis GC 2267; GC2267, read-out: MINIMAL INHIBITORY CONCENTRATION MIC, Human Serum): 4 µg/mL (≈ 5.05 µM)
MIC (E. faecalis GC 2267; GC2267, read-out: MINIMAL INHIBITORY CONCENTRATION MIC, Mouse Serum): 2 µg/mL (≈ 2.53 µM)
MIC (E. faecalis GC 2267; GC2267, read-out: MINIMAL INHIBITORY CONCENTRATION MIC, Water): 16 µg/mL (≈ 20.2 µM)
